Earlier results, collected in patent US20200261389A1 (priority 2014, published 2020).
Where two headings read alike, the source gives them in different places.

Experiments:
[1] = test system: zinc-dependent metalloproteinases; details: for reduction of GP shedding: higher concentrations (25-50 mM)
retroviruses = details: millimolar concentrations, in vitro
cultured cells = details: added to cultured cells
[2] = test system: Human Foreskin (HF) cells infected with HSV-2-strain G; details: 3 to 1.5 mM

c1cnc2c(c1)ccc1cccnc12 [1,10-phenanthroline]
apoptosis / cell death of leukemia cells (leukemia cells): DNA fragmentation and cell death occurred

CNC(=O)[C@@H](NC(=O)[C@H](CC(C)C)[C@H](O)C(=O)NO)C(C)(C)C [BB2516]
inhibition of glycoprotein shedding ([1]; concentration of 0.5 mM): inhibitory effects were observed

COc1ccc(S(=O)(=O)N(Cc2cccnc2)[C@@H](C(=O)NO)C(C)C)cc1 [CGS-27023A]
reduction of GP shedding [1]: reduced GP shedding

O=C(O)CN(CCN(CC(=O)O)CC(=O)O)CC(=O)O [EDTA, ethylenediaminetetraacetic acid]
effect on retroviruses (retroviruses): partial disintegration of viral membranes

O=C(O)CN(CCOCCOCCN(CC(=O)O)CC(=O)O)CC(=O)O [EGTA, ethylene glycol tetraacetic acid]
effect on retroviruses (retroviruses): partial disintegration of viral membranes

CNC(=O)[C@H](Cc1c[nH]c2ccccc12)NC(=O)[C@@H](CC(=O)NO)CC(C)C [GM6001]
inhibition of glycoprotein shedding ([1]; concentration of 5 mM): inhibitory effects were observed

COc1ccc(S(=O)(=O)N(CC(=O)NO)CC(C)C)cc1 [MMP-3 inhibitor II]
reduction of GP shedding [1]: reduced GP shedding

COc1ccc(S(=O)(=O)N2Cc3ccccc3C[C@@H]2C(=O)NO)cc1 [MMP-8 inhibitor I]
inhibition of glycoprotein shedding ([1]; concentration of 5 mM): inhibitory effects were observed

CC(C)C[C@H](CC(=O)NO)C(=O)N[C@@H](Cc1ccc2ccccc2c1)C(=O)N[C@@H](C)C(=O)NCCN [TAPI-I]
reduction of GP shedding [1]: reduced GP shedding

c1ccc(CN(CCN(Cc2ccccn2)Cc2ccccn2)Cc2ccccn2)nc1 [TPEN, N,N,N′,N′-tetrakis-2-pyridyl methyl-ethylene diamine]
apoptosis of cultured cells (cultured cells): induces apoptosis

O=C(O)c1ccccn1 [picolinic acid]
apoptosis of infected cells [2]: cause apoptosis of HF infected cells
apoptosis / cell death of leukemia cells (leukemia cells): induces apoptosis
